According to ChEMBL document CHEMBL3045561, “Feeding deterrents from Zanthoxylum schinifolium against two stored-product insects” (J Agric Food Chem, 2009):

Experiments:
Tribolium castaneum [1] = assay: Feeding deterrent activity against adult Tribolium castaneum (red flour beetle) on compound pre-treated wheat flour disks assessed as food utilization rate at 30 ppm after 3 days by flour disk bioassay (reference value: 20.59 +/-1.47%); format: functional
Tribolium castaneum [2] = assay: Feeding deterrent activity against adult Tribolium castaneum (red flour beetle) on compound pre-treated wheat flour disks assessed as food utilization rate at 3 ppm after 3 days by flour disk bioassay (reference value: 20.59 +/-1.47%); format: functional
Sitophilus zeamais [3] = assay: Feeding deterrent activity against adult Sitophilus zeamais on compound pretreated wheat flour disks assessed as food utilization rate at 1000 ppm after 3 days by flour disk bioassay (reference value: 11.09 +/-1.12%); format: functional
Tribolium castaneum [4] = assay: Feeding deterrent activity against adult Tribolium castaneum (red flour beetle) on compound pre-treated wheat flour disks assessed as relative food consumption rate at 300 ppm after 3 days by flour disk bioassay (reference value: 143.22 +/-4.32 ug/mg/day); format: functional
Tribolium castaneum [5] = assay: Feeding deterrent activity against adult Tribolium castaneum (red flour beetle) on compound pre-treated wheat flour disks assessed as relative food consumption rate at 30 ppm after 3 days by flour disk bioassay (reference value: 143.22 +/-4.32 ug/mg/day); format: functional
Tribolium castaneum [6] = assay: Feeding deterrent activity against adult Tribolium castaneum (red flour beetle) on compound pre-treated wheat flour disks assessed as relative food consumption rate at 10 ppm after 3 days by flour disk bioassay (reference value: 143.22 +/-4.32 ug/mg/day); format: functional
Sitophilus zeamais [7] = assay: Feeding deterrent activity against adult Sitophilus zeamais on compound pretreated wheat flour disks assessed as relative food consumption rate at 1000 ppm after 3 days by flour disk bioassay (reference value: 122.72 +/-4.32 ug/mg/day); format: functional
Sitophilus zeamais [8] = assay: Feeding deterrent activity against adult Sitophilus zeamais on compound pretreated wheat flour disks assessed as relative food consumption rate at 300 ppm after 3 days by flour disk bioassay (reference value: 122.72 +/-4.32 ug/mg/day); format: functional
Sitophilus zeamais [9] = assay: Feeding deterrent activity against adult Sitophilus zeamais on compound pretreated wheat flour disks assessed as relative food consumption rate at 100 ppm after 3 days by flour disk bioassay (reference value: 122.72 +/-4.32 ug/mg/day); format: functional
Sitophilus zeamais [10] = assay: Feeding deterrent activity against adult Sitophilus zeamais on compound pretreated wheat flour disks assessed as relative food consumption rate at 30 ppm after 3 days by flour disk bioassay (reference value: 122.72 +/-4.32 ug/mg/day); format: functional
Sitophilus zeamais [11] = assay: Feeding deterrent activity against adult Sitophilus zeamais on compound pretreated wheat flour disks assessed as relative food consumption rate at 3 ppm after 3 days by flour disk bioassay (reference value: 122.72 +/-4.32 ug/mg/day); format: functional
Tribolium castaneum [12] = assay: Feeding deterrent activity against adult Tribolium castaneum (red flour beetle) on compound pre-treated wheat flour disks after 3 days by flour disk bioassay; format: functional, organism-based
Sitophilus zeamais [13] = assay: Feeding deterrent activity against adult Sitophilus zeamais on compound pretreated wheat flour disks after 3 days by flour disk bioassay; format: functional, organism-based
Tribolium castaneum [14] = assay: Feeding deterrent activity against adult Tribolium castaneum (red flour beetle) on compound pre-treated wheat flour disks at 1000 ppm after 3 days by flour disk bioassay; format: functional
Tribolium castaneum [15] = assay: Feeding deterrent activity against adult Tribolium castaneum (red flour beetle) on compound pre-treated wheat flour disks at 300 ppm after 3 days by flour disk bioassay; format: functional
Tribolium castaneum [16] = assay: Feeding deterrent activity against adult Tribolium castaneum (red flour beetle) on compound pre-treated wheat flour disks at 10 ppm after 3 days by flour disk bioassay; format: functional
Tribolium castaneum [17] = assay: Feeding deterrent activity against adult Tribolium castaneum (red flour beetle) on compound pre-treated wheat flour disks assessed as relative growth rate at 100 ppm after 3 days by flour disk bioassay (reference value: 29.49 +/-1.35 ug/mg/day); format: functional
Tribolium castaneum [18] = assay: Feeding deterrent activity against adult Tribolium castaneum (red flour beetle) on compound pre-treated wheat flour disks assessed as relative growth rate at 10 ppm after 3 days by flour disk bioassay (reference value: 29.49 +/-1.35 ug/mg/day); format: functional
Tribolium castaneum [19] = assay: Feeding deterrent activity against adult Tribolium castaneum (red flour beetle) on compound pre-treated wheat flour disks assessed as relative growth rate at 3 ppm after 3 days by flour disk bioassay (reference value: 29.49 +/-1.35 ug/mg/day); format: functional
Sitophilus zeamais [20] = assay: Feeding deterrent activity against adult Sitophilus zeamais on compound pretreated wheat flour disks assessed as relative growth rate at 1000 ppm after 3 days by flour disk bioassay (reference value: 13.61 +/-1.13 ug/mg/day); format: functional
Sitophilus zeamais [21] = assay: Feeding deterrent activity against adult Sitophilus zeamais on compound pretreated wheat flour disks assessed as relative growth rate at 300 ppm after 3 days by flour disk bioassay (reference value: 13.61 +/-1.13 ug/mg/day); format: functional
Sitophilus zeamais [22] = assay: Feeding deterrent activity against adult Sitophilus zeamais on compound pretreated wheat flour disks assessed as relative growth rate at 3 ppm after 3 days by flour disk bioassay (reference value: 13.61 +/-1.13 ug/mg/day); format: functional
Tribolium castaneum [23] = assay: Feeding deterrent activity against adult Tribolium castaneum (red flour beetle) on compound pre-treated wheat flour disks at 3 ppm after 3 days by flour disk bioassay; format: functional
Sitophilus zeamais [24] = assay: Feeding deterrent activity against adult Sitophilus zeamais on compound pretreated wheat flour disks at 1000 ppm after 3 days by flour disk bioassay; format: functional
Sitophilus zeamais [25] = assay: Feeding deterrent activity against adult Sitophilus zeamais on compound pretreated wheat flour disks at 10 ppm after 3 days by flour disk bioassay; format: functional
Sitophilus zeamais [26] = assay: Feeding deterrent activity against adult Sitophilus zeamais on compound pretreated wheat flour disks at 3 ppm after 3 days by flour disk bioassay; format: functional
Tribolium castaneum [27] = assay: Feeding deterrent activity against adult Tribolium castaneum (red flour beetle) on compound pre-treated wheat flour disks assessed as mortality at 1000 ppm after 3 days by flour disk bioassay (reference value: 0%); format: functional
Tribolium castaneum [28] = assay: Feeding deterrent activity against adult Tribolium castaneum (red flour beetle) on compound pre-treated wheat flour disks assessed as mortality at 300 ppm after 3 days by flour disk bioassay (reference value: 0%); format: functional
Tribolium castaneum [29] = assay: Feeding deterrent activity against adult Tribolium castaneum (red flour beetle) on compound pre-treated wheat flour disks assessed as mortality at 30 ppm after 3 days by flour disk bioassay (reference value: 0%); format: functional
Tribolium castaneum [30] = assay: Feeding deterrent activity against adult Tribolium castaneum (red flour beetle) on compound pre-treated wheat flour disks assessed as mortality at 10 ppm after 3 days by flour disk bioassay (reference value: 0%); format: functional
Sitophilus zeamais [31] = assay: Feeding deterrent activity against adult Sitophilus zeamais on compound pretreated wheat flour disks assessed as mortality at 1000 ppm after 3 days by flour disk bioassay (reference value: 0%); format: functional
Sitophilus zeamais [32] = assay: Feeding deterrent activity against adult Sitophilus zeamais on compound pretreated wheat flour disks assessed as mortality at 30 ppm after 3 days by flour disk bioassay (reference value: 0%); format: functional
Sitophilus zeamais [33] = assay: Feeding deterrent activity against adult Sitophilus zeamais on compound pretreated wheat flour disks assessed as mortality at 10 ppm after 3 days by flour disk bioassay (reference value: 0%); format: functional
Tribolium castaneum [34] = assay: Feeding deterrent activity against adult Tribolium castaneum (red flour beetle) on compound pre-treated wheat flour disks assessed as food utilization rate at 1000 ppm after 3 days by flour disk bioassay (reference value: 20.59 +/-1.47%); format: functional
Tribolium castaneum [35] = assay: Feeding deterrent activity against adult Tribolium castaneum (red flour beetle) on compound pre-treated wheat flour disks assessed as food utilization rate at 100 ppm after 3 days by flour disk bioassay (reference value: 20.59 +/-1.47%); format: functional

Row | Structure (SMILES) | ECI (Tribolium castaneum [1]) [%] | ECI (Tribolium castaneum [2]) [%] | ECI (Sitophilus zeamais [3]) [%] | Activity (Tribolium castaneum [4]) [µg/mg/day] | Activity (Tribolium castaneum [5]) [µg/mg/day] | Activity (Tribolium castaneum [6]) [µg/mg/day] | Activity (Sitophilus zeamais [7]) [µg/mg/day] | Activity (Sitophilus zeamais [8]) [µg/mg/day] | Activity (Sitophilus zeamais [9]) [µg/mg/day] | Activity (Sitophilus zeamais [10]) [µg/mg/day] | Activity (Sitophilus zeamais [11]) [µg/mg/day] | EC50 (Tribolium castaneum [12]) [ppm] | EC50 (Sitophilus zeamais [13]) [ppm] | FDI (Tribolium castaneum [14]) [%] | FDI (Tribolium castaneum [15]) [%] | FDI (Tribolium castaneum [16]) [%] | Activity (Tribolium castaneum [17]) [µg/mg/day] | Activity (Tribolium castaneum [18]) [µg/mg/day] | Activity (Tribolium castaneum [19]) [µg/mg/day] | Activity (Sitophilus zeamais [20]) [µg/mg/day] | other results
1 | CCCCCCCc1cc(=O)c2ccccc2n1C [SCHINIFOLINE] | 16.5 | 20.68 | 3.84 | 21.29 | 79.64 | 119.29 | 10.51 | 34.51 | 50.29 | 89.93 | 122.39 | 47.81 | 85.63 | 98.34 | 85.85 | 18.64 | 6.17 | 24.24 | 28.85 | 0.4 | Activity (Sitophilus zeamais [21]): 2.04 µg/mg/day; Activity (Sitophilus zeamais [22]): 13.72 µg/mg/day; FDI (Tribolium castaneum [23]): 4.46%; FDI (Sitophilus zeamais [24]): 92.15%; FDI (Sitophilus zeamais [25]): 10.28%; FDI (Sitophilus zeamais [26]): 1.47%; mortality at 1000 ppm (Tribolium castaneum [27]): 20%; mortality at 300 ppm (Tribolium castaneum [28]): 8%; mortality at 30 ppm (Tribolium castaneum [29]): 0%; mortality at 10 ppm (Tribolium castaneum [30]): 0%; mortality at 1000 ppm (Sitophilus zeamais [31]): 16%; mortality at 30 ppm (Sitophilus zeamais [32]): 2%; mortality at 10 ppm (Sitophilus zeamais [33]): 0%; ECI (Tribolium castaneum [34]): 3.29%; ECI (Tribolium castaneum [35]): 11.57%
2 | COc1ccc2c(OC)c3ccoc3nc2c1OC [SKIMMIANINE] | 15.12 | 20.25 | 4.21 | 31.56 | 101.27 | 124.71 | 18.31 | 45.13 | 59.65 | 92.84 | 120.9 | 75.71 | 129.72 | 89.56 | 68.62 | 13.21 | 8.49 | 24.21 | 27.92 | 0.77 | Activity (Sitophilus zeamais [21]): 3.07 µg/mg/day; Activity (Sitophilus zeamais [22]): 13.27 µg/mg/day; FDI (Tribolium castaneum [23]): 4.31%; FDI (Sitophilus zeamais [24]): 82.43%; FDI (Sitophilus zeamais [25]): 10.21%; FDI (Sitophilus zeamais [26]): 3.53%; mortality at 1000 ppm (Tribolium castaneum [27]): 14%; mortality at 300 ppm (Tribolium castaneum [28]): 6%; mortality at 30 ppm (Tribolium castaneum [29]): 0%; mortality at 10 ppm (Tribolium castaneum [30]): 0%; mortality at 1000 ppm (Sitophilus zeamais [31]): 10%; mortality at 30 ppm (Sitophilus zeamais [32]): 0%; mortality at 10 ppm (Sitophilus zeamais [33]): 0%; ECI (Tribolium castaneum [34]): 7.81%; ECI (Tribolium castaneum [35]): 13.72%
